Data set [1] is described as follows: Low-temperature behaviour of octyl hydroxy stearate monomer and oligomers (clouding point, liquid state). The class given is physicochemical. From the text:
A monomer of octyl hydroxy stearate has problems in terms of stable dissolution of poorly soluble substances, while an octamer and above lead to poor self-condensing property of 12-hydroxy stearate and result in a broad distribution of molecular weight, which in turn causes unstable quality, solidification at temperatures below zero, and undesirable touch and other tactile senstations. For example, a monomer of octyl hydroxy stearate is a low-viscosity oil which is non-sticky and has a clean touch and also offers excellent oxidization stability. However, its clouding point is high, or at approx. 20° C., and thus crystal generates in the solution or the entire formulation solidifies in winter, resulting in markedly lower feeling of use and other problems such as the formulation not coming out of the container due to an increased viscosity. An octamer has similar problems. A dimer of octyl hydroxy stearate is structurally a monomer with one more molecule unit. However, it has substantially different chemical properties.

Data set [2] in a line: Check for precipitation of crystal in 1:1 mixtures of oil solution and diethyl amino hydroxy benzoyl hexyl benzoate kept at 5° C. The data set is classed as physicochemical. More on the design: key to Evaluation results 1 week / Evaluation results Following day / Evaluation results Same day: X: Evaluation results accompanied by an x in Table 2 indicate that crystal had precipitated at the applicable point in time. The following applies: for Evaluation results 1 week / Evaluation results Following day / Evaluation results Same day / Evaluation results 6 months: 1:1 by mass with diethyl amino hydroxy benzoyl hexyl benzoate, kept at 5° C.; for Evaluation results 1 week: checked after one week; for Evaluation results Following day: checked after one day; for Evaluation results Same day: heated to 80° C., cooled, checked after half a day; for Evaluation results 6 months: checked after six months. The source says:
Evaluation results accompanied by an x in Table 2 indicate that crystal had precipitated at the applicable point in time.

For data set [3] the following is noted: cited from earlier work.

As for `CCCCCCC(O)CCCCCCCCCCC(=O)OCC(CC)CCCC` (centres unmarked) [Component 16, Octyl hydroxyl stearate (monomer)], in data set [1], the clouding point entry was “approx. 20 °C”. For the same compound, in data set [2], the “Evaluation results 1 week” value is “X”. The “precipitation of crystal / stability of the 1:1 mixture, in words” value in data set [2] (summary of Table 2, 5° C.) is reported as “crystal precipitated after one week”. As for `CC(C)CCCCCCCCCCOC(=O)CCCCCC(C)C` [Component 17, Isotridecyl isononanate], the “Evaluation results Following day” value in data set [2] was “X”.

Turning to `CCO` [Component 18, Ethanol (99%)], in data set [2], the “Evaluation results Following day” value is recorded as “X”. Turning to `CCCCCCCCCCCCCCCCOC(=O)C(CC)CCCC` (centres unmarked) [Component 19, Cetyl ethyl hexanoate], the “Evaluation results Following day” value in data set [2] was “X”.

`CCCCCCCCCCCCCCCC(=O)OCC(CC)CCCC` (centres unmarked) [Component 20, Ethyl hexyl palmitate]: the “Evaluation results Following day” value in data set [2] is recorded as “X”. Regarding `CCCCC(CC)C(=O)OCC(COC(=O)C(CC)CCCC)OC(=O)C(CC)CCCC` (centres unmarked) [Component 21, Glycerin tri 2-ethyl hexanoate], in data set [2], the “Evaluation results Following day” value was “X”. With `CC(C)CCCCCCOC(=O)CCCCCC(C)C` [Component 25, Isononyl isononanate], the “Evaluation results Following day” value in data set [2] is “X”. As for `CC(C)CCCC(C)CCCC(C)CCCCC(C)CCCC(C)CCCC(C)C` (centres unmarked) [Component 26, Squalane], the “Evaluation results Same day” value in data set [2] is “X”. `CCCCCCCCCCC(CO)CCCCCCCC` (centres unmarked) [Component 29, Octyl dodecanol]: the “Evaluation results Following day” value in data set [2] is listed as “X”. In the case of `CCCCCCCC(=O)OCC(C)OC(=O)CCCCCCC` (centres unmarked) [Component 30, Propylene glycol dicaprylate], in data set [2], the “Evaluation results Following day” value is “X”. With `OCC(O)CO` [Component 31, Glycerin], the “Evaluation results Same day” value in data set [2] is recorded as “X”. Take `CC(O)CCO` (centres unmarked) [Component 32, 1,3-BG]: in data set [2], the “Evaluation results Following day” value was “X”. Consider `CCCCCCCCCCCCCCCC(=O)OC(C)C` [Component 33, Isopropyl palmitate], for which, in data set [2], the “Evaluation results Same day” value is given as “X”. With `CCCCCCCCCCCCCC(=O)OCC(CCCCCCCC)CCCCCCCCCC` (centres unmarked) [Component 34, Octyl dodecyl myristate], in data set [2], the “Evaluation results Same day” value is “X”. For the compound `CCCCC(CC)C(=O)OCC(CC)(CO)COCC(CC)(COC(=O)C(CC)CCCC)COC(=O)C(CC)CCCC` (centres unmarked) [Component 44, Ditrimethylol propane triethyl hexanoate], in data set [2], the “Evaluation results Following day” value is listed as “X”. On the same count and under the same terms, to `CC(C)CCCCCCCCCCCCCCCOC(=O)CC(O)C(=O)OCCCCCCCCCCCCCCCC(C)C` (centres unmarked) [Component 47, Diisostearyl malate] belongs “X”. As for `CCCCC(CC)C(=O)OCC(COC(=O)C(CC)CCCC)OC(=O)C(CC)CCCC` (centres unmarked) [Component 50, Triethyl hexanoin], in data set [2], the “Evaluation results Following day” value is “X”.

With `CCCCC(CC)C(=O)OCC(C)(C)COC(=O)C(CC)CCCC` (centres unmarked) [Component 51, Neopentyl glycol diethyl hexanoate], the “Evaluation results Following day” value in data set [2] was “X”. Regarding `CCCCCCCCCCC(CCCCCCCC)COC(=O)C(C)O` (centres unmarked) [Component 52, Octyl dodecyl lactate], in data set [2], the “Evaluation results Following day” value is “X”. As for `CCCCCCCC(=O)OCC(C)(C)COC(=O)CCCCCCC` [Component 53, Neopentyl glycol dicaprylate], in data set [2], the “Evaluation results Same day” value is “X”. Take `CCCCC(CC)COC(=O)/C=C/c1ccc(OC)cc1` (centres unmarked) [Component 56, Ethyl hexyl para-methoxy cinnamate]: the “Evaluation results 1 week” value in data set [2] is “X”. As to `CCCCCCCCOC(=O)OCCCCCCCC` [Component 57, Dicapryl carbonate], in data set [2], the “Evaluation results Same day” value is “X”. With `CCCCCCCCOCCCCCCCC` [Component 58, Dioctyl ether], the “Evaluation results Following day” value in data set [2] is recorded as “X”. Regarding `COc1ccc(C(=O)c2ccccc2)c(O)c1` [Component 59, Benzophenone-3], the “Evaluation results Same day” value in data set [2] is “X”. As to `CCCCCCCCCCCCCCCCCCO` [Component 61, Stearyl alcohol], in data set [2], the “Evaluation results Same day” value is “X”.

For `CCCCCCOC(=O)c1ccccc1C(=O)c1ccc(N(CC)CC)cc1O` [diethyl amino hydroxy benzoyl hexyl benzoate], the “dissolves in 2-ethyl hexyl para-methoxy cinnamate” value in data set [3] (solvent 2-ethyl hexyl para-methoxy cinnamate) was 42%. Further, in data set [3] (solvent cyclomethicone (volatile silicone)), the dissolves in cyclomethicone is 0.4%. The “dissolves in octyl para-methoxy cinnamate” value in data set [3] (solvent octyl para-methoxy cinnamate) is reported as “up to 42 percent by mass”. In the case of C12-15 alkyl benzoate [Component 62], in data set [2], the “Evaluation results Following day” value is on record as “X”.

Turning to Cyclomethicone [Component 64], the “Evaluation results Same day” value in data set [2] was “X”. DPG [Component 22]: in data set [2], the “Evaluation results Same day” value is recorded as “X” and the “Evaluation results Following day” value is reported as “X”. Regarding “Diglyceryl tetraisostearate [Component 49]”, in data set [2], the “Evaluation results Following day” value was “X”.

With “Ditrimethylol propane (isostearate/sebacate) [Component 46]”, the “Evaluation results Following day” value in data set [2] is “X”.

For “Erythrityl triethyl hexanoate [Component 45]”, the “Evaluation results Following day” value in data set [2] was “X”. On the same count and under the same terms, with “Glycerin tri (capryl/caprate) [Component 28]” the entry was “X”. For “Octyl hydroxyl stearate oligomer (dimmer) [Component 1]”, the “state at 5° C.” value in data set [1] (5° C.) is “remains permanently liquid”. Also, the “Evaluation results 6 months” value in data set [2] is recorded as “◯”. On to “Octyl hydroxyl stearate oligomer (heptamer) [Component 6]”, for which the “Evaluation results 6 months” value in data set [2] is recorded as “◯”. For the compound “Octyl hydroxyl stearate oligomer (hexamer) [Component 5]”, the “Evaluation results 6 months” value in data set [2] is listed as “◯”. Turning to “Octyl hydroxyl stearate oligomer (pentamer) [Component 4]”, the “Evaluation results 6 months” value in data set [2] is “◯”. Take “Octyl hydroxyl stearate oligomer (tetramer) [Component 3]”: the “Evaluation results 6 months” value in data set [2] is reported as “◯”. With “Octyl hydroxyl stearate oligomer (trimer) [Component 2]”, in data set [2], the “Evaluation results 6 months” value is “◯”. With Sorbitan isostearate [Component 36], in data set [2], the “Evaluation results Following day” value is reported as “X”.

In the case of Sorbitan sesquioleate [Component 35], in data set [2], the “Evaluation results Following day” value is “X”.

These data come from patent US8198335B2, “Cosmetic material” (Parahermosa Co., Ltd., priority 2009, dated 2012).
